# “And” between values parts separate entries of the source, which are not always exact repeats. Equal entries are not always repeated. Marks after values point to notes of the source that are not given here.
# Assays:
# Assay type in all cases: cell-based
# S. sobrinus = assay: Multi-species biofilm composition: absolute abundance of S. sobrinus; conditions: mean±SD n=3
# Description: (§1) Biofilms are grown vertically on Calcium Deficient Hydroxyapatite (CAD-HA) disks (Hitemco Medical, Old Bethpage, USA) using the Amsterdam Active Adhesion model. Biofilms are allowed to establish during 24 h (37° C., 170 rpm) under micro-aerophilic conditions (6% O2, 7% CO2, 7% H2, 80% N2). After this 24 h, disks are rinsed 3 times a day for 3 minutes (RT, 250 rpm), for 3 consecutive days, by transferring the lid containing the disks to a new 24-well plate containing 2 mL/well of the appropriate substrate solution. As a negative control, PBS (pH 5.7) without substrate supplementation is used. After each rinsing step, disks are shortly dip-rinsed in a new 24-well plate containing fresh modified BHI medium (2 mL/well) to remove remaining substrate traces. Subsequently, the lid is transferred to another 24-well plate containing fresh modified BHI medium (2 mL/well), followed by incubation (micro-aerophilic, 37° C., 170 rpm) until the next rinsing step.
# (§2) NADM, N-acetyl-D-glucosamine (“NADG”) and D-(+)-mannose are selected to determine their effects on multi-species biofilm composition. […] decrease in absolute numbers in at least four of the pathogenic bacterial species tested in the assay, compared to the control, the results of which are described in Table 1 below. Absolute abundances of bacterial species are shown as mean±SD (n=3) logarithmic values of the genome equivalents per millilitre (log(Geq/mL)).
# A. viscosus = assay: Multi-species biofilm composition: absolute abundance of A. viscosus; conditions: mean±SD n=3
# Description: as §1, §2
# P. intermedia = assay: Multi-species biofilm composition: absolute abundance of P. intermedia; conditions: mean±SD n=3
# Description: as §1
# (§3) NADM, N-acetyl-D-glucosamine (“NADG”) and D-(+)-mannose are selected to determine their effects on multi-species biofilm composition. Repeated rinsing of the biofilms with the substrates at a concentration of 1M results in a significant decrease in absolute numbers in at least four of the pathogenic bacterial species tested in the assay, compared to the control, the results of which are described in Table 1 below. Absolute abundances of bacterial species are shown as mean±SD (n=3) logarithmic values of the genome equivalents per millilitre (log(Geq/mL)).
# [1] = system: F. nucleatum virulence genes; assay: Multi-species biofilm virulence gene expression, SYBR RT-qPCR: F. nucleatum; conditions: relative to control (=1), 2^-ΔΔCt, geometric mean n=3
# Description: as §1
# The expression of 33 virulence genes from 4 periodontal pathogens is analysed to evaluate the relative virulence of the substrate-treated biofilms. For all three substrates, virulence gene expression is determined relatively to the control, and these values are also compared between substrates when this is relevant (Tables 5a-5d).
# P. gingivalis = assay: Multi-species biofilm composition: absolute abundance of P. gingivalis; conditions: mean±SD n=3
# Description: as §1, §2
# A. naeslundii = assay: Multi-species biofilm composition: absolute abundance of A. naeslundii; conditions: mean±SD n=3
# Description: as §1, §3
# S. gordonii = assay: Multi-species biofilm composition: absolute abundance of S. gordonii; conditions: mean±SD n=3
# Description: as §1, §3
# [2] = system: human oral keratinocytes (HOK-18A); assay: IL-8 levels in supernatants of keratinocyte cultures exposed to substrate-treated biofilms; conditions: for IL-8 levels in supernatants of HOK-18A cultures: mean±SD n=3
# Description: Cultures of immortalized human oral keratinocytes (HOK-18A) are grown. The relative inflammatory potential of the substrate-treated multi-species biofilms is evaluated by analyzing the expression of five inflammatory mediator genes in human oral keratinocytes (HOKs) exposed to the substrate-treated biofilms. […] The IL-8 levels in the cellular supernatant are determined as well. RNA is converted to cDNA and relative expression of inflammatory mediator genes is determined as described above with respect to the cellular housekeeping gene (3-actin.
# Table 7: IL-8 levels detected in the supernatants of human oral keratinocytes (HOK-18A) cultures exposed to substrate-treated multi-species biofilms are shown as mean±SD (n=3) values (pg/mL). All substrates are dissolved in PBS at a concentration of 1 M (upper part) or 1% (w/v) (lower part). Values between 0 and 1 represent relative downregulation, values >1 represent relative upregulation. […] For such values, statistically significant differences between two experimental conditions are marked with ‘#1’ (vs. NADM), ‘#2’ (vs. NADG), ‘#3’ (vs. D-(+)-mannose) (P<0.05).
# S. oralis = assay: Multi-species biofilm composition: absolute abundance of S. oralis; conditions: for Absolute abundance S. oralis: mean±SD n=3
# Description: as §1, §2
# multi-species biofilms = assay: Multi-species biofilm organic acid balances (supernatant); conditions: >0 production, <0 consumption, mean±SD n=3
# Description: as §1
# To examine the effect of NADM and the influence of the orientation and absence/presence of the N-acetyl group on organic acid production and consumption, supernatant samples from substrate-treated or untreated multi-species biofilms are analysed. […] When comparing relevant significant differences between substrate conditions, an increase in acetate production is observed for NADM compared to D-(+)-mannose (3084±174 vs. 1934±56 mg/L).
# multi-species biofilm = assay: Relative multi-species biofilm composition (groups of bacterial species); conditions: mean±SD n=3
# Description: as §1, §2
# Relative abundances of the different groups (beneficial/commensals, periodontal pathogens, cariogenic pathogens) of bacterial species are shown as mean±SD (n=3) percentage of the genome equivalents per millilitre (% (Geq/mL)). […] NADM: N-acetyl-D-mannosamine; NADG: N-acetyl-D-glucosamine.
# S. salivarius = assay: Multi-species biofilm composition: absolute abundance of S. salivarius; conditions: mean±SD n=3
# Description: as §1, §3
smiles,measurement,setting,value
"CC(=O)N[C@@H]1C(O)O[C@H](CO)[C@@H](O)[C@@H]1O (stereo partly drawn) [NADM, N-acetyl-D-mannosamine]",Absolute abundance S. sobrinus,S. sobrinus; substrate 1%(w/v) in PBS,5.24 ± 0.27 log(Geq/mL)
same,Absolute abundance S. sobrinus,S. sobrinus; substrate 1 M in PBS,6.05 ± 0.23 log(Geq/mL)
same,Absolute abundance Av (A. viscosus),A. viscosus; substrate 1%(w/v) in PBS,7.73 ± 0.09 log(Geq/mL)
same,Absolute abundance Av (A. viscosus),A. viscosus; substrate 1 M in PBS,8.35 ± 0.30 log(Geq/mL)
same,Absolute abundance Pi (P. intermedia),P. intermedia; substrate 1%(w/v) in PBS,7.48 ± 0.40 log(Geq/mL)
same,Absolute abundance Pi (P. intermedia),P. intermedia; substrate 1 M in PBS,9.07 ± 0.06 log(Geq/mL)
same,Fold Change in virulence gene expression: ABC transp. perm.,[1]; substrate 1%,0.39 fold
same,Fold Change in virulence gene expression: EF-G,[1]; substrate 1%,0.11 fold
same,Fold Change in virulence gene expression: but.-coA transf.,[1]; substrate 1%,0.38 fold
same,Fold Change in virulence gene expression: hemin receptor,[1]; substrate 1%,0.10 fold
same,Fold Change in virulence gene expression: hemolysin,[1]; substrate 1%,0.55 fold
same,Fold Change in virulence gene expression: ompA,[1]; substrate 1%,0.75 fold
same,Fold Change in virulence gene expression: transposase,[1]; substrate 1%,0.75 fold
same,Fold Change in virulence gene expression: ABC transp. perm.,[1]; substrate 1M,2.46 fold
same,Fold Change in virulence gene expression: EF-G,[1]; substrate 1M,1.37 fold
same,Fold Change in virulence gene expression: but.-coA transf.,[1]; substrate 1M,0.76 fold
same,Fold Change in virulence gene expression: hemin receptor,[1]; substrate 1M,2.81 fold
same,Fold Change in virulence gene expression: hemolysin,[1]; substrate 1M,1.05 fold
same,Fold Change in virulence gene expression: ompA,[1]; substrate 1M,1.27 fold
same,Fold Change in virulence gene expression: transposase,[1]; substrate 1M,1.03 fold
same,Absolute abundance Pg (P. gingivalis),P. gingivalis; substrate 1%(w/v) in PBS,7.06 ± 0.30 log(Geq/mL)
same,Absolute abundance Pg (P. gingivalis),P. gingivalis; substrate 1 M in PBS,5.42 ± 0.23 log(Geq/mL)
same,Absolute abundance An (A. naeslundii),A. naeslundii; substrate 1%(w/v) in PBS,7.60 ± 0.22 log(Geq/mL)
same,Absolute abundance An (A. naeslundii),A. naeslundii; substrate 1 M in PBS,6.73 ± 0.39 log(Geq/mL)
same,Absolute abundance S. gord. (S. gordonii),S. gordonii; substrate 1%(w/v) in PBS,8.40 ± 0.10 log(Geq/mL)
same,Absolute abundance S. gord. (S. gordonii),S. gordonii; substrate 1 M in PBS,8.94 ± 0.32 log(Geq/mL)
same,IL-8 levels in supernatants of HOK-18A cultures,[2]; biofilm rinsed with substrate 1%(w/v),30.32 ± 6.26 pg/mL
same,IL-8 levels in supernatants of HOK-18A cultures,[2]; biofilm rinsed with substrate 1M,0.59 ± 0.61 pg/mL
same,Reduced IL-8 levels compared to the control,[2]; substrate 1%(w/v),2.4 fold
same,Absolute abundance S. oralis,S. oralis; substrate 1%(w/v) in PBS,7.49 ± 0.30 log(Geq/mL)
same,Change in S. oralis numbers compared to the control,S. oralis; substrate 1 M,+2.5 log(Geq/mL)
same,Difference in S. oralis numbers compared to NADG,S. oralis; substrate 1 M,+1.5 log(Geq/mL)
same,Absolute abundance S. oralis,S. oralis; substrate 1 M in PBS,"9.46 ± 0.24*^, #2 log(Geq/mL)"
same,acetate level in biofilm supernatant,multi-species biofilms; substrate 1%(w/v),396 ± 11 mg/L
same,butyrate level in biofilm supernatant,multi-species biofilms; substrate 1%(w/v),1989 ± 44 mg/L
same,formate level in biofilm supernatant,multi-species biofilms; substrate 1%(w/v),3768 ± 174 mg/L
same,lactate level in biofilm supernatant,multi-species biofilms; substrate 1%(w/v),125 ± 0 mg/L
same,propionate level in biofilm supernatant,multi-species biofilms; substrate 1%(w/v),1891 ± 79 mg/L
same,butyrate level in biofilm supernatant,multi-species biofilms; substrate 1 M,"541±52 mg/L and 541 ± 52*^, #2, 3 mg/L"
same,formate level in biofilm supernatant,multi-species biofilms; substrate 1 M,791.9 ± 138.27 mg/L and 792 ± 138 mg/L
same,lactate level in biofilm supernatant,multi-species biofilms; substrate 1 M,125 ± 0 mg/L
same,propionate level in biofilm supernatant,multi-species biofilms; substrate 1 M,2052 ± 54 mg/L
same,Relative abundance Beneficials/Commensals,multi-species biofilm; substrate 1%(w/v) in PBS,61.62 ± 4.88 % (Geq/mL)
same,Relative abundance Cariogenic Pathogens,multi-species biofilm; substrate 1%(w/v) in PBS,0.05 ± 0.01 % (Geq/mL)
same,Relative abundance Periodontal Pathogens,multi-species biofilm; substrate 1%(w/v) in PBS,38.32 ± 4.86 % (Geq/mL)
same,Relative abundance Beneficial or commensals,multi-species biofilm; substrate 1 M in PBS,97.61±0.28 % (Geq/mL)
same,Relative abundance Cariogenic Pathogens,multi-species biofilm; substrate 1 M in PBS,0.06 ± 0.04 % (Geq/mL)
same,Relative abundance Periodontal Pathogens,multi-species biofilm; substrate 1 M in PBS,"2.34±0.31 % (Geq/mL) and 2.34 ± 0.31^#2, 3 % (Geq/mL)"
same,Absolute abundance S. sal. (S. salivarius),S. salivarius; substrate 1%(w/v) in PBS,2.90 ± 0.36 log(Geq/mL)
same,Absolute abundance S. sal. (S. salivarius),S. salivarius; substrate 1 M in PBS,3.34 ± 0.55 log(Geq/mL)

# — patent US20220257491A1, “Prebiotic Oral Care Compositions and Methods” (Colgate-Palmolive Company, priority 2021, published 2022)
